Patent US20100227895A1, “METHOD FOR TREATING EQUINE LAMINITIS” (MPCO- THE MAGIC POWDER COMPANY, priority 2009, published 2010)

Columns and labels:
[1] = system: equine laminitis; experiment: Oral treatment of horses with laminitis (case examples); type: in vivo, horse
Protocol: The preferred form of practicing the present method will now be described for a horse weighing approximately 500 kg. In practicing the present method, the four main ingredients that are administered to prevent, treat and/or cure laminitis are: choline bitartrate, L-tyrosine, Niacin, and d-Calcium Pantothenate. These ingredients may be administered in corresponding approximate ratios of 40:41:8:16 (by weight). In the preferred embodiment, an approximately 35 day supply of the treatment includes 80 grams of choline bitartrate, 82 grams of L-tyrosine, 16 grams of niacin, and 32 grams of d-calcium pantothenate. Each dose for oral administration contains approximately 1127.5 mg of choline bitartrate, 1155.6 mg of L-tyrosine, 225.5 mg of niacin, and 451.1 mg of d-Calcium pantothenate. Preferably, this dosage is administered twice per day to an affected horse.
A quarter-horse mare first experienced laminitis at age 5 after exposure to septic waste from a failing septic field. This first bout with laminitis lasted roughly two years. At age 9, the mare was left on a heavily grazed pasture for one day and developed laminitis, the second onset of the disease during its life, presumably from exposure to fructans in grass. Transportation of the mare exacerbated the laminitis symptoms. The mare recovered gradually, but spent a lot of time lying down. […]

[2] = molecular target: tyrosine hydroxylase (TH) (Homo sapiens, UniProt P07101); settings: concentration of T at which the reaction proceeds at 50% of the maximal rate; cited from earlier work
[3] = system: NE synthesis; settings: analogous to the KM of the overall reaction; read-out: concentration of tyrosine at the half-maximal rate of NE synthesis; cited from earlier work

Chain of tyrosine hydroxylase (TH) (P07101 whole entry): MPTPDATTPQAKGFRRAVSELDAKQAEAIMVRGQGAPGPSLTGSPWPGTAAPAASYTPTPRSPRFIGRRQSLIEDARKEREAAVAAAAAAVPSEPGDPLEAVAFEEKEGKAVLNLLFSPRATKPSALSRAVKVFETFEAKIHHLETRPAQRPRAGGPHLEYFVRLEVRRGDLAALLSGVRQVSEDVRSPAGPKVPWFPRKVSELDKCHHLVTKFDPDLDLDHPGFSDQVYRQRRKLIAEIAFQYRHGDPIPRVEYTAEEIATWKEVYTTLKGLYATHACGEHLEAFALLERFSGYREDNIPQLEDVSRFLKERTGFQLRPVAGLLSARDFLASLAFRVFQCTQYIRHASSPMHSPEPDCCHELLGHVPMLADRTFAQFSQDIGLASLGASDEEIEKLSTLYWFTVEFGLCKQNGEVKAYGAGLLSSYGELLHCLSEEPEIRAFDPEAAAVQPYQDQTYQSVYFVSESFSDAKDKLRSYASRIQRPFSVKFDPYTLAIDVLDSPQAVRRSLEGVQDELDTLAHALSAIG

For `N[C@@H](Cc1ccc(O)cc1)C(=O)O` [tyrosine, 4-hydroxyphenylalanine], the “condition of the mare with laminitis” value ([1]; Example 1, quarter-horse mare, second onset of laminitis, initial dosing, daily for nearly 90 days) is given as “improved the condition”, the recurrence of laminitis ([1]; Example 2, ten year-old mare, recommended dosage after the bout) is given as “did not re-experience laminitis” and the Km [2] is given as ~25 µM. The EC50 [3] was 10 to 40 µM.
